Laboratory results published in patent US11433052B2, “5-LOX and COX-2 inhibition for treatment in connection with blood-brain barrier dysfunction” (University of Kentucky Research Foundation, priority 2019, dated 2022).

How the values were obtained:
MMP = MMP activity in isolated capillaries exposed to glutamate; type: cell-based, rat; details: 100 μM glutamate with 100 μM LCF
Experimental: (§1) With reference to FIGS. 1A-1C, the effect of dual LOX-COX inhibition on glutamate-mediated capillary leakage was tested. Isolated rat brain capillaries were exposed to 100 μM glutamate with or without 100 μM of the dual LOX/COX inhibitor, licofelone (LCF). […] FIG. 1B is a bar graph illustrating MMP activity assessed in isolated capillaries exposed to 100 μM glutamate with or without LCF.

[1] = system: brain capillaries from pilocarpine-induced status epilepticus (SE) rats; test: Texas Red leakage from capillary lumens, seizure-mediated capillary leakage in SE rats; type: in vivo, rat; details: 10 mg/kg LCF i.p., 7 injections; capillaries isolated 2 d after SE-induction with pilocarpine
Experimental: With reference to FIGS. 2A and 2B, the effect of dual LOX-COX inhibition on seizure-mediated capillary leakage was tested. Rats were treated with 10 mg/kg LCF (i.p., 7 injections). Capillaries were isolated 2 d after status epilepticus (SE)-induction with pilocarpine. Texas Red (TR) leakage from capillary lumens was monitored by confocal microscopy. Mannitol served as a positive control for barrier opening. (Hartz et al., 2012). Data includes mean±SEM (n=10 capillaries); arbitrary units (0-255). B) S100β ELISA (Millipore). Statistics: ***p<0.001 (ANOVA). […] With reference to FIGS. 4A and 4B, the effect of a combination of a LOX inhibitor and a COX inhibitor on seizure-mediated capillary leakage was tested. Rats were treated with zileuton (ZLT) and celecoxib (CEL) (5 mg/kg and 10 mg/kg; i.p., 7 injections). Capillaries were isolated 2 d after SE-induction with pilocarpine. Texas Red (TR) leakage from capillary lumens monitored by confocal microscopy (mannitol: positive control for barrier opening; Hartz et al., 2012). Data: mean±SEM (n=10 capillaries); arbitrary units (0-255).

S100β = test: Serum S100β ELISA in SE rats; type: in vivo, rat; details: 7 injections, 2 d after SE-induction with pilocarpine
Experimental: With reference to FIGS. 2A and 2B, the effect of dual LOX-COX inhibition on seizure-mediated capillary leakage was tested. Rats were treated with 10 mg/kg LCF (i.p., 7 injections). Capillaries were isolated 2 d after status epilepticus (SE)-induction with pilocarpine. Serum levels of S100β were assessed by ELISA (Millipore). Statistics: ***p<0.001 (ANOVA). Data: mean±SEM. […] The effect of dual LOX-COX inhibition on seizure-mediated capillary leakage was further tested in rates treated with either 5 mg/kg or 10 mg/kg LCF (i.p., 7 injections). Capillaries were isolated 2 d after SE-induction with pilocarpine. Serum levels of S100β were assessed by ELISA (Millipore). […] With reference to FIGS. 4A and 4B, the effect of a combination of a LOX inhibitor and a COX inhibitor on seizure-mediated capillary leakage was tested. Rats were treated with zileuton (ZLT) and celecoxib (CEL) (5 mg/kg and 10 mg/kg; i.p., 7 injections). Capillaries were isolated 2 d after SE-induction with pilocarpine. Serum levels of S100β were assessed by ELISA (Millipore). Statistics: ***p<0.001 (ANOVA). Data: mean±SEM.

MMP-2 = test: Western blot of MMP-2 protein expression in capillaries exposed to glutamate; type: cell-based; details: isolated rat brain capillaries, 100 μM glutamate with 100 μM LCF
Experimental: as §1, with “1A includes Western blots showing MMP-2 and MMP-9 protein expression” for “1B is a bar graph illustrating MMP activity assessed”, “isolated rat brain” for “isolated”, “LCF. β-Actin was used as protein loading control.” for “LCF.”

[2] = system: isolated rat brain capillaries; test: Texas Red leakage assay, glutamate-mediated capillary leakage; type: cell-based; details: 100 μM glutamate with 100 μM LCF
Experimental: (§2) With reference to FIGS. 1A-1C, the effect of dual LOX-COX inhibition on glutamate-mediated capillary leakage was tested. Isolated rat brain capillaries were exposed to 100 μM glutamate with or without 100 μM of the dual LOX/COX inhibitor, licofelone (LCF).

MMP-9 = test: Western blot of MMP-9 protein expression in capillaries exposed to glutamate; type: cell-based; details: isolated rat brain capillaries, 100 μM glutamate with 100 μM LCF
Experimental: as §2, with “(LCF). […] FIG. 1A includes Western blots showing MMP-2 and MMP-9 protein expression in isolated rat brain capillaries exposed to 100 μM glutamate with or without LCF. β-Actin was used as protein loading control.” for “(LCF).”

With `CC1(C)Cc2c(-c3ccccc3)c(-c3ccc(Cl)cc3)c(CC(=O)O)n2C1` [licofelone] the MMP activity (MMP) was “did not show increased activity”, the “capillary leakage in SE rats (Texas Red leakage)” value [1] was “prevents capillary leakage” and the “capillary leakage as reflected by S100β levels in serum from SE rats, dose dependence” value (S100β; 5 mg/kg or 10 mg/kg LCF i.p.) was “inhibit capillary leakage in a dose-dependent manner”. For the same compound, the “S100β levels in serum from SE rats” value (S100β; 10 mg/kg LCF i.p.) was “reduces S100β levels”, the “MMP-2 protein levels (Western blot)” value (MMP-2) was “did not show increased protein levels” and the “glutamate-mediated capillary leakage (Texas Red leakage)” value [2] was “reduced glutamate-mediated capillary leakage”. The “glutamate-mediated capillary leakage (Texas Red leakage)” value ([2]; listed as LCF) was “glutamate-mediated barrier leakage reduction” and the “MMP-9 protein levels (Western blot)” value (MMP-9) was “did not show increased protein levels”.
